In patent US20220306695A1, “COMPSTATIN ANALOGUES AND THEIR MEDICAL USES” (priority 2019, published 2022):
pIC50, pKd: −log10 of the molar value. Read-outs that look alike come from different tables or passages of the source. Starred links: 1 amine or outer side, 2 acyl side, 3 side chain; linkers in the order of their positions; H or OH if unused. Positions of bridges follow the written chain, without caps; N, C: chain ends. Non-standard residues stand in square brackets, D forms with d. Residues, ends and D or L forms follow the SMILES beside them. Groups on a side chain read outwards from the residue. *: point of attachment. Trp(1-Me) = Cn1cc(C[C@H](N)C(=O)O)c2ccccc21; Abu(4-yl) = O=C([C@H](CC[*:3])N[*:1])[*:2]; C18 diacid = O=C(O)CCCCCCCCCCCCCCCCC(=O)*; γGlu = O=C(O)[C@H](CCC(=O)[*:2])N[*:1]; AEEA = NCCOCCOCC(=O)O; Sar = CNCC(=O)O

Legend:
[1] = tested on: classical complement pathway; experiment: In vitro haemolysis assay (inhibition of classical complement pathway); format: cell-based, human; settings: for IC50: Table 3, human serum, sensitized sheep red blood cells, read-out: IC50[nM], in vitro analysis of inhibition of hemolysis; for pIC50: Table 4, valine 3 versus isoleucine 3 pairs, read-out: CP hemolysis IC50
In short: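 Serially diluted compound (9 points) was preincubated 15 min at room temperature with diluted human serum, titrated per batch to give 70-90% maximal haemolysis, in Tris/casein buffer pH 7.4 with Mg2+/Ca2+. Antibody-sensitized sheep erythrocytes were then added for 30 min at 37° C, and the reaction was stopped with EDTA. Haemolysis was read at A405, with IC50 from 4PL fit.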

[2] = Solubility test at 10 mg/mL (visual inspection and light scattering); format: physicochemical; settings: for Solubility, Condition 1 Acetate pH 4: 10 mg/mL compound in 100 mM acetate pH 4; for Solubility, Condition 2 Acetate pH 5: 10 mg/mL compound in 100 mM acetate pH 5; for Solubility, Condition 3 Phosphate pH 6: 10 mg/mL compound in 100 mM phosphate pH 6; for Solubility, Condition 4 Phosphate pH 7: 10 mg/mL compound in 100 mM phosphate pH 7; for Solubility, Condition 5 Phosphate pH 7.5: 10 mg/mL compound in 100 mM phosphate pH 7.5
[3] = target: T1, Human C3 (Homo sapiens, UniProt P01024); experiment: Affinity measurement by surface plasmon resonance (SPR) with immobilized C3; format: binding; settings: Table 7; immobilized C3, 25° C., pH 7.4
T1 construct: purchased Complement tech A1 13c (so in the source)
Method: Surface plasmon resonance (SPR) was used to characterize peptides with respect to their binding affinity (Kd) for C3. Human C3 (Complement tech cat #A1 13c) was immobilised on individual flow cells of CM5 sensor chips (GE Healthcare) using standard amine coupling to a density of approximately 3000 resonance units (RU) in a buffer consisting of 10 mM phosphate pH 7.4, 150 mM NaCl, 0.05% Tween20. For interaction experiments a multi-cycle experiment approach was used and performed using either a Biacore™ T200 or Biacore™ X100 instrument (GE Healthcare) at 25° C. Peptides were injected in increasing concentration series (5-8 different concentrations) for 60-120 s at a flow rate of 30 μL/min in a buffer consisting of 10 mM Tris buffer at pH 7.4, with 150 mM NaCl and 0.05% Tween20. This was followed by a dissociation period for up to 10 min. […] Sensorgrams were double-referenced (reference surface, blanks) prior to analysis of the kinetic profiles by globally fitting data to a 1:1 Langmuir binding model to obtain association and dissociation rates for calculation of the equilibrium dissociation constant Kd. Each peptide was tested at in at least 2 independent experiments.

| Compound | IC50 [1] [nM] | pIC50 [1] | Solubility, Condition 1 Acetate pH 4 [2] | Solubility, Condition 2 Acetate pH 5 [2] | Solubility, Condition 3 Phosphate pH 6 [2] | Solubility, Condition 4 Phosphate pH 7 [2] | Solubility, Condition 5 Phosphate pH 7.5 [2] | pKd [3] | Solubility by visual inspection and absorbance, condition 1, 2 and 3 ([2]; 10 mg/mL, acetate pH 4.0, acetate pH 5.0, phosphate pH 6.0, all exceeding 0.1 AU threshold) | Solubility by visual inspection and absorbance, condition 4 and 5 ([2]; 10 mg/mL, phosphate pH 7 and phosphate pH 7.5) |
| --- | --- | --- | --- | --- | --- | --- | --- | --- | --- | --- |
| CC[C@H](C)[C@H](NC(C)=O)C(=O)N[C@H]1CSSC[C@@H](C(=O)N[C@H](C(=O)NCC(=O)N[C@@H](C)C(=O)N[C@@H](CCC(=O)O)C(=O)N[C@@H](CO)C(N)=O)[C@@H](C)O)NC(=O)[C@H](CCCNC(=N)N)NC(=O)[C@H](Cc2c[nH]cn2)NC(=O)[C@H](CCC(=O)O)NC(=O)CNC(=O)[C@H](Cc2c[nH]c3ccccc23)NC(=O)[C@H](CC(=O)O)NC(=O)[C@H](CCC(N)=O)NC(=O)[C@H](Cc2c[nH]c3ccccc23)NC(=O)[C@H]([C@@H](C)CC)NC1=O [Compound 15] (Ac-ICIWQDWGEHRCTGAES-NH2; disulfide 2-12) | < 100 | 7.33 | + (denotes solubility at the given condition, as determined by UV absorbance being less than 0.1 AU at 340 nm and the sample being clear when manually inspected.) | − (denotes lack of solubility at the given condition, as UV absorbance at 340 nm exceeds 0.1 AU and/or it is visibly turbid or contains particles.) | − (denotes lack of solubility at the given condition, as UV absorbance at 340 nm exceeds 0.1 AU and/or it is visibly turbid or contains particles.) | + (denotes solubility at the given condition, as determined by UV absorbance being less than 0.1 AU at 340 nm and the sample being clear when manually inspected.) | + (denotes solubility at the given condition, as determined by UV absorbance being less than 0.1 AU at 340 nm and the sample being clear when manually inspected.) | 7.85 | – | – |
| CC[C@H](C)[C@H](NC(C)=O)C(=O)N[C@H]1CSSC[C@@H](C(=O)N[C@H](C(=O)N[C@@H](CCC(=O)O)C(=O)NCC(=O)N[C@@H](CCC(=O)O)C(N)=O)[C@@H](C)O)NC(=O)[C@H](CCCNC(=N)N)NC(=O)[C@H](Cc2c[nH]cn2)NC(=O)[C@H](CCC(=O)O)NC(=O)CNC(=O)[C@H](Cc2c[nH]c3ccccc23)NC(=O)[C@H](CC(=O)O)NC(=O)[C@H](CCC(N)=O)NC(=O)[C@H](Cc2c[nH]c3ccccc23)NC(=O)[C@H]([C@@H](C)CC)NC1=O [Compound 24] (Ac-ICIWQDWGEHRCTEGE-NH2; disulfide 2-12) | < 100 | 7.05 | − (denotes lack of solubility at the given condition, as UV absorbance at 340 nm exceeds 0.1 AU and/or it is visibly turbid or contains particles.) | − (denotes lack of solubility at the given condition, as UV absorbance at 340 nm exceeds 0.1 AU and/or it is visibly turbid or contains particles.) | − (denotes lack of solubility at the given condition, as UV absorbance at 340 nm exceeds 0.1 AU and/or it is visibly turbid or contains particles.) | + (denotes solubility at the given condition, as determined by UV absorbance being less than 0.1 AU at 340 nm and the sample being clear when manually inspected.) | + (denotes solubility at the given condition, as determined by UV absorbance being less than 0.1 AU at 340 nm and the sample being clear when manually inspected.) | 7.55 | cloudy | good conditions for solubility |
| CC[C@H](C)[C@@H]1NC(=O)[C@@H](NC(=O)[C@H](Cc2ccccc2)NC(=O)[C@H](CCC(=O)O)NC(=O)[C@H](CO)NC(C)=O)CCSC[C@@H](C(=O)N(C)CC(=O)N[C@@H](CCC(=O)O)C(=O)NCC(=O)N[C@@H](CCC(=O)O)C(=O)NCCOCCOCC(=O)NCCOCCOCC(=O)N[C@@H](CCCCNC(=O)CC[C@H](NC(=O)CNC(=O)CC[C@H](NC(=O)CCCCCCCCCCCCCCCCC(=O)O)C(=O)O)C(=O)O)C(N)=O)NC(=O)[C@H](CCCNC(=N)N)NC(=O)[C@H](Cc2c[nH]cn2)NC(=O)[C@H](CCC(=O)O)NC(=O)CNC(=O)[C@H](Cc2c[nH]c3ccccc23)NC(=O)[C@H](CC(=O)O)NC(=O)[C@H](CCC(N)=O)NC(=O)[C@H](Cc2cn(C)c3ccccc23)NC1=O [Compound 152] (Ac-SEF[Abu(4-yl)]I[Trp(1-Me)]QDWGEHRC[Sar]EGE[AEEA][AEEA]K([γGlu-Gly-γGlu-C18 diacid])-NH2; thioether 4-14) | < 100 | – | – | – | – | – | – | 7.80 | – | – |
| CC[C@H](C)[C@@H]1NC(=O)[C@@H](NC(=O)[C@H](Cc2ccccc2)NC(=O)[C@H](CCC(=O)O)NC(C)=O)CSCC[C@@H](C(=O)N[C@@H](CCC(=O)O)C(=O)NCC(=O)N[C@@H](CCC(=O)O)C(=O)N[C@@H](CCCCNC(=O)CC[C@H](NC(=O)CNC(=O)CC[C@H](NC(=O)CCCCCCCCCCCCCCCCC(=O)O)C(=O)O)C(=O)O)C(N)=O)NC(=O)[C@H](CCCNC(=N)N)NC(=O)[C@H](Cc2c[nH]cn2)NC(=O)[C@H](CCC(=O)O)NC(=O)CNC(=O)[C@H](Cc2c[nH]c3ccccc23)NC(=O)[C@H](CC(=O)O)NC(=O)[C@H](CCC(N)=O)NC(=O)[C@H](Cc2cn(C)c3ccccc23)NC1=O [Compound 161, Ac-EFA(1)I[1-Me-Trp]QDWGEHRhC(1)EGE-K([17-carboxy-heptadecanoyl][γGlu]G[γGlu])-NH2] (Ac-EFCI[Trp(1-Me)]QDWGEHR[Abu(4-yl)]EGEK([γGlu-Gly-γGlu-C18 diacid])-NH2; thioether 3-13) | < 100 | – | – | – | – | – | – | 8.47 | – | – |
| CC[C@H](C)[C@@H]1NC(=O)[C@@H](NC(=O)[C@H](Cc2ccccc2)NC(=O)[C@H](CCC(=O)O)NC(=O)[C@H](CO)NC(C)=O)CCSC[C@@H](C(=O)N(C)CC(=O)N[C@@H](CCC(=O)O)C(=O)NCC(=O)N[C@@H](CCC(=O)O)C(=O)NCCOCCOCC(=O)N[C@@H](CCC(=O)O)C(=O)N[C@@H](CO)C(=O)N[C@@H](CCCCNC(=O)CC[C@H](NC(=O)CNC(=O)CC[C@H](NC(=O)CCCCCCCCCCCCCCCCC(=O)O)C(=O)O)C(=O)O)C(N)=O)NC(=O)[C@H](CCCNC(=N)N)NC(=O)[C@H](Cc2c[nH]cn2)NC(=O)[C@H](CCC(=O)O)NC(=O)CN(C)C(=O)[C@H](Cc2c[nH]c3ccccc23)NC(=O)[C@H](CC(=O)O)NC(=O)[C@H](CCC(N)=O)NC(=O)[C@H](Cc2cn(C)c3ccccc23)NC1=O [Compound 166, Ac-SEFhC(1)I[1-Me-Trp]QDW[Sar]EHRA(1)[Sar]EGE[Peg3]ES-K([17-carboxy-heptadecanoyl][γGlu]G[γGlu])-NH2] (Ac-SEF[Abu(4-yl)]I[Trp(1-Me)]QDW[Sar]EHRC[Sar]EGE[AEEA]ESK([γGlu-Gly-γGlu-C18 diacid])-NH2; thioether 4-14) | < 100 | – | – | – | – | – | – | 8.19 | – | – |
